In one assay the target is human α9α10 nAChRs (Homo sapiens, UniProt Q9GZZ6+Q9UGM1). It is filed as cell-based.
The next assay deals with rat α7 nAChRs (Rattus norvegicus, UniProt Q05941). Nature of the assay: cell-based. Type of assay: cell-based.
The next assay deals with rat α9α10 nAChRs (Rattus norvegicus, UniProt P43144+Q9JLB5). It is filed as cell-based.
In a further assay the target is human α7 nAChRs (Homo sapiens, UniProt P36544). Description: cell-based.
Chain of human α7 nAChRs (P36544 23-502 limits assumed): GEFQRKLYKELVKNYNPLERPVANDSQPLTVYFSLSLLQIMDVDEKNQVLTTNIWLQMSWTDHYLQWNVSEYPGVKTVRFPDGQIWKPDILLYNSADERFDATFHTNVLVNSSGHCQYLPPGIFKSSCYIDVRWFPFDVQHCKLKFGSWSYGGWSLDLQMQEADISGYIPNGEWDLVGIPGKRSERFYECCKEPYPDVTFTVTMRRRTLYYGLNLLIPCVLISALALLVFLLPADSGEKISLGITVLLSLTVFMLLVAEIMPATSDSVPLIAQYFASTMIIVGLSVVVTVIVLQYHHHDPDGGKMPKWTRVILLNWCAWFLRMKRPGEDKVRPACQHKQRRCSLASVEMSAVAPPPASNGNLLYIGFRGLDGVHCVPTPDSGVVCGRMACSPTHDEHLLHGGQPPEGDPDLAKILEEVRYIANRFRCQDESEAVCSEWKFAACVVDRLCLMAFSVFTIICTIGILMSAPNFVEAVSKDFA

Chain of rat α7 nAChRs (Q05941 23-502 limits assumed): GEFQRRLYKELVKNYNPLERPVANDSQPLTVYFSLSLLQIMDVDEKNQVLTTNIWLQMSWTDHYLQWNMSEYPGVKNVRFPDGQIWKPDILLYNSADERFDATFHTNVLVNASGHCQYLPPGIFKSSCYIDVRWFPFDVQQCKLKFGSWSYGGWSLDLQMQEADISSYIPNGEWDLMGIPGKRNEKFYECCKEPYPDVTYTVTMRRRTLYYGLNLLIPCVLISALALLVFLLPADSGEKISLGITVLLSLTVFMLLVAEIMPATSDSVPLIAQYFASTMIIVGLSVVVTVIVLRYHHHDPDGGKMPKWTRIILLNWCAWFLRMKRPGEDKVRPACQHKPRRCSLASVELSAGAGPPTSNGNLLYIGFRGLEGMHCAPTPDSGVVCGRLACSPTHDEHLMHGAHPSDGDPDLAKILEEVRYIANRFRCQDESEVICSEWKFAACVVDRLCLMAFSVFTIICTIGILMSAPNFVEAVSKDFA
Chain of human α9α10 nAChRs (Q9UGM1 26-479 limits assumed): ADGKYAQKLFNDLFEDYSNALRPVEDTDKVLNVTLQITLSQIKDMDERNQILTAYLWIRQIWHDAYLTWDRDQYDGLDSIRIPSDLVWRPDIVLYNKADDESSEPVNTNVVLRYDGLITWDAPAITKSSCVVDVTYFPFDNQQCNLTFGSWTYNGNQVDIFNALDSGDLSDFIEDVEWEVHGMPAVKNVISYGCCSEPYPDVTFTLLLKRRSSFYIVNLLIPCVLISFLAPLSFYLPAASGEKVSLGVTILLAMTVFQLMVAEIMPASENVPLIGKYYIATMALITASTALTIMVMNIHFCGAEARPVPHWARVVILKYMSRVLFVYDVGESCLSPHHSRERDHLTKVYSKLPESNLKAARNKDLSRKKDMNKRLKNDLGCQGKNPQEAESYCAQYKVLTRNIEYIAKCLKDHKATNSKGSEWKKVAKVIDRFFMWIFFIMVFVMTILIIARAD
Chain of human α9α10 nAChRs (Q9GZZ6 25-450 limits assumed): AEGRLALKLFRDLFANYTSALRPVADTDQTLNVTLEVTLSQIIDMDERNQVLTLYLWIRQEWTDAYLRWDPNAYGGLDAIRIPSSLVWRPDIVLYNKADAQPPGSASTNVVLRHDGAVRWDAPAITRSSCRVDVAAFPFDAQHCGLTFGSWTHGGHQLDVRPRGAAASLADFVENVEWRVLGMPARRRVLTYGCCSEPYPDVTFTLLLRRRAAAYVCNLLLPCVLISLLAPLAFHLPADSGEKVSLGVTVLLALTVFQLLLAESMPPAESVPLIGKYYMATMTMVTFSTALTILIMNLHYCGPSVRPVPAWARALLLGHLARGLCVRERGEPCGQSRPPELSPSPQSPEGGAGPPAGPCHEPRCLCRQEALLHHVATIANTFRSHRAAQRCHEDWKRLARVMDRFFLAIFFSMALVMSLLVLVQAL
Chain of rat α9α10 nAChRs (P43144 26-479 limits assumed): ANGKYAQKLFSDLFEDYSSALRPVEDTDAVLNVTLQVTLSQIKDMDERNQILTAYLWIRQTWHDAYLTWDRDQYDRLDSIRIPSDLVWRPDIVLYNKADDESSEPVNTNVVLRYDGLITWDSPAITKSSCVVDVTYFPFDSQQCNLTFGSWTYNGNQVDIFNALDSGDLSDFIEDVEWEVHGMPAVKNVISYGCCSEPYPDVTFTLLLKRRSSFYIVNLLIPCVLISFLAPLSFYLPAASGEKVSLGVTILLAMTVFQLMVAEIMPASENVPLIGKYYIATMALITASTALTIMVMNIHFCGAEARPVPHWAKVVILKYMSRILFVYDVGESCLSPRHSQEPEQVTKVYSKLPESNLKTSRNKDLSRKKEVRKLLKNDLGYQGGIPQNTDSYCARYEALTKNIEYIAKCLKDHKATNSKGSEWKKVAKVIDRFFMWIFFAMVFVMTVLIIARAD
Chain of rat α9α10 nAChRs (Q9JLB5 25-447 limits assumed): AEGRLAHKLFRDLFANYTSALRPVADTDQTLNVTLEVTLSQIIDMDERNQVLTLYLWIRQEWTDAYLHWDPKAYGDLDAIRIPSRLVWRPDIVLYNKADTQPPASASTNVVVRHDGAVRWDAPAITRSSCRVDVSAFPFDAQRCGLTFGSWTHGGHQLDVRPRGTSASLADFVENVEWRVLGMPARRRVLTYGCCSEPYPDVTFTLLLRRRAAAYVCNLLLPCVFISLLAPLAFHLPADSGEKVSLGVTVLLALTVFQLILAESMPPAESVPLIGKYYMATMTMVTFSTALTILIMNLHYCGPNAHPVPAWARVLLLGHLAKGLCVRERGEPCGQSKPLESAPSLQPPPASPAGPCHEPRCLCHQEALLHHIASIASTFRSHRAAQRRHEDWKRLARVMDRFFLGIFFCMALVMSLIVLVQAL

Usually IC50 stands for the concentration that inhibits the measured activity by half. High values mean lower potency, low ones higher potency. For the molecule `N=C(N)NCCC[C@H](NC(=O)[C@@H]1CSSC[C@@H]2NC(=O)[C@@H](NC(=O)CN)CSSC[C@H](NC(=O)[C@H](CCCNC(=N)N)NC(=O)[C@@H]3CCCN3C(=O)[C@H](CC(=O)O)NC(=O)[C@H](CO)NC2=O)C(=O)N[C@@H](CCCNC(=N)N)C(=O)N[C@@H](Cc2ccc(O)cc2)C(=O)N[C@@H](CCCNC(=N)N)C(=O)N1)C(=O)O` [RgIA], the “Hill Slope” value is on record as 0.5 (0.4–0.6) at human α9α10 nAChRs, 0.8 (0.4–1.1) on rat α7 nAChRs, 0.8 (0.7–0.9) on rat α9α10 nAChRs and 0.7 (0.4–1.0) on human α7 nAChRs. For the same molecule, the IC50 was 5.31 µM against rat α7 nAChRs and 4.61 µM at human α7 nAChRs. Further, on rat α7 nAChRs, the “inhibition of ACh-evoked currents” value was found to be 60%.

These data come from publication PMC10302633 (Marine Drugs, 2023).
